Experimental data from patent US6486191B2 (priority 1997, dated 2002).
≈ marks a conversion by molar mass, not a printed value.

What was measured:
Penicillium brevicaule = assay: Material protection test (MIC on malt extract agar); format: cell-based; details: 336 h, two weeks at 27° C., 60 to 70% relative humidity, read-out: Minimum inhibitory concentration (MIC value)
Aspergillus niger = assay: as above; format: cell-based; details: 336 h, two weeks at 27° C., 60 to 70% relative humidity, read-out: Minimum inhibitory concentration (MIC value)
Chaetomium globosum = assay: as above; format: cell-based; details: 336 h, two weeks at 27° C., 60 to 70% relative humidity, read-out: Minimum inhibitory concentration (MIC value)
[1] = system: larvae of the horseradish beetle (Phaedon cochleariae); assay: Phaedon larvae test; format: in vivo; details: cabbage leaves immersed, active substance concentration 0.1 % by weight
Method: (§1) Solvent: 7 parts by weight of dimethylformamide
(§2) Emulsifier: 1 part by weight of alkylaryl polyglycol ether
For the preparation of an expedient fonnulation of active substance, 1 part by weight of active substance is mixed with the stated amounts of solvent and emulsifier, and the concentrate is diluted to the desired concentration with water.
Cabbage leaves (Brassica oleracea) are treated by immersion in the formulation of active substance of the desired concentration and infested with larvae of the horseradish beetle (Phaedon cochleariae) as long as the leaves are still moist.
After the desired time, the kill in % is determined. 100% means that all beetle larvae were killed; 0% means that no beetle larvae were killed.

[2] = system: caterpillars of the diamondback moth (Plutella xylostella); assay: Plutella test; format: in vivo; details: cabbage leaves immersed, active substance concentration 0.1 % by weight
Method: as §1, §2
For the preparation of an expedient formulation of active substance, 1 part by weight of active substance is mixed with the stated amounts of solvent and emulsifier, and the concentrate is diluted to the desired concentration with water.
Cabbage leaves (Brassica oleracea) are treated by immersion in the formulation of active substance of the desired concentration and infested with caterpillars of the diamondback moth (Plutella xylostella) as long as the leaves are still moist.
After the desired time, the kill in % is determined. 100% means that all caterpillars were killed; 0% means that no caterpillars were killed.

Compound	MIC (Penicillium brevicaule) [µg/mL]	MIC (Aspergillus niger) [µg/mL]	MIC (Chaetomium globosum) [µg/mL]	Kill in % after 7 d [1] [%]	Kill in % after 7 d [2] [%]
Cc1ccc(S(=O)(=O)n2c(C#N)nc3cc4c(cc32)OC(F)(F)C(F)(F)O4)cc1[N+](=O)[O-] [Example 2]	100 (≈ 212 µM)	200 (≈ 423 µM)	100 (≈ 212 µM)	–	–
Cc1ccc([N+](=O)[O-])cc1S(=O)(=O)n1c(C#N)nc2cc3c(cc21)OC(F)(F)C(F)(F)O3 [Example 5]	100 (≈ 212 µM)	200 (≈ 423 µM)	100 (≈ 212 µM)	–	–
Cc1ccc(S(=O)(=O)n2c(C#N)nc3cc4c(cc32)OC(F)(F)C(F)(F)O4)cc1[N+](=O)[O-] [drawing 67]	–	–	–	100	–
Cc1ccc([N+](=O)[O-])cc1S(=O)(=O)n1c(C#N)nc2cc3c(cc21)OC(F)(F)C(F)(F)O3 [drawing 68]	–	–	–	100	–
Cc1ccc(S(=O)(=O)n2c(C#N)nc3cc4c(cc32)OC(F)(F)C(F)(F)O4)cc1[N+](=O)[O-] [drawing 69]	–	–	–	–	100
Cc1ccc([N+](=O)[O-])cc1S(=O)(=O)n1c(C#N)nc2cc3c(cc21)OC(F)(F)C(F)(F)O3 [drawing 70]	–	–	–	–	100
